This passage reports IC50 results from ChEMBL document CHEMBL1128696, “Hydroxylated aromatic inhibitors of HIV-1 integrase” (J Med Chem, 1995).

Where only a bound is given, the exact number is not on record here.

This experiment deals with Human immunodeficiency virus type 1 integrase (Human immunodeficiency virus 1, UniProt Q7ZJM1). Description: In vitro inhibitory activity against HIV-1 integrase.
Sequence of Human immunodeficiency virus type 1 integrase (Q7ZJM1 whole entry): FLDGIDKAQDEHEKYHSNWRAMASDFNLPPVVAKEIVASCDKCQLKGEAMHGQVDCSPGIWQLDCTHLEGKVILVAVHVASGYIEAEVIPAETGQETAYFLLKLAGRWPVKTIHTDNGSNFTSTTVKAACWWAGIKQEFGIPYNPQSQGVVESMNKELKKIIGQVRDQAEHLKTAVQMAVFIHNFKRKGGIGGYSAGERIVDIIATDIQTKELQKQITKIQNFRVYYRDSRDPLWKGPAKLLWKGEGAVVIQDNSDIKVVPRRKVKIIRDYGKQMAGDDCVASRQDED
In turn, `O=C(OCCc1ccccc1)c1ccc2c(O)c(O)ccc2c1` had an IC50 of 18 µM. `COc1cc(/C=C/C(=O)OCCc2ccccc2)ccc1O` returned a concentration for half-maximal inhibition (IC50) of more than 100 µM. Take `O=C(/C=C/c1ccc(O)c(O)c1O)OCCc1ccccc1`: the 50% inhibitory concentration (IC50) came out at 2 µM.

In the case of `O=C(NCc1ccccc1)c1cc2cc(O)c(O)cc2cn1`, the 50% inhibitory concentration (IC50) is more than 100 µM.

In turn, `N#C/C(=C\c1ccc(O)c(O)c1)C(N)=O` gave an IC50 of more than 100 µM. Take `COc1ccc(/C=C/C(=O)OCCc2ccccc2)cc1OC`: the IC50 is more than 100 µM.

`O=C(/C=C/c1cc(O)ccc1O)OCCc1ccccc1` came in with a 50% inhibitory concentration (IC50) of more than 100 µM. For `COc1ccc(/C=C/C(=O)OCCc2ccccc2)cc1O` the value was 60 µM; for `CCOC(=O)/C=C/c1ccc(O)c(O)c1` [ETHYL CAFFEATE], more than 100 µM.

In the case of `COC(=O)c1ccc2c(O)c(O)ccc2c1`, the midpoint of inhibition, the IC50, lay at 8 µM.

In turn, `O=C(NCc1ccccc1)c1cc2ccc(O)c(O)c2cn1` yielded a half-maximal inhibitory concentration (IC50) of 75 µM. `COC(=O)/C=C/c1ccc(O)c(O)c1` [METHYLCAFFEATE] registered a 50% inhibitory concentration (IC50) of more than 100 µM. On to `O=C(/C=C/c1ccc(O)c(O)c1)OCCc1ccccc1` [CAFFEIC ACID PHENETHYL ESTER], for which 7 µM corresponded to half-maximal inhibition (IC50). For `N=c1oc2c(O)c(O)ccc2cc1C(N)=O` the value was 93 µM. Turning to `O=C(/C=C/c1cc(O)c(O)c(O)c1)OCCc1ccccc1`, the half-inhibitory concentration (IC50) stood at 2 µM. Compound `O=C(CCc1ccccc1)NCCc1ccc(O)c(O)c1` displayed an IC50 of more than 100 µM. For `O=C(Cc1ccccc1)NCCc1ccc(O)c(O)c1`, the concentration for half-maximal inhibition (IC50) is more than 100 µM. `O=C(NCCc1ccccc1)c1cc2ccc(O)c(O)c2cn1` yielded an IC50 of 40 µM. In turn, `O=C(OCCc1ccccc1)c1ccc2cc(O)c(O)cc2c1` showed an IC50 of 68 µM. As to `O=C(/C=C/c1ccc(F)c(F)c1)OCCc1ccccc1`, the IC50 was more than 100 µM. `O=C(/C=C/c1cc(O)c(O)cc1O)OCCc1ccccc1` came in with a concentration for half-maximal inhibition (IC50) of 55 µM.

Turning to `COC(=O)c1cc2ccc(O)c(O)c2cn1`, the IC50 is 14 µM. `O=C(CCc1ccc(O)c(O)c1)OCCc1ccccc1` yielded a concentration for half-maximal inhibition (IC50) of 11 µM.

`N=c1oc2cc(O)c(O)cc2cc1C(N)=O`: the IC50 was determined as 48 µM. For `O=C(/C=C/c1ccc(O)c(O)c1)OCc1ccccc1` [BENZYL CAFFEATE] the value was 9 µM; for `O=C(CCc1ccc(O)c(O)c1)NCCc1ccc(O)c(O)c1`, 3 µM; for `COC(=O)c1cc2cc(O)c(O)cc2cn1`, more than 100 µM. Turning to `O=C(/C=C/c1ccc(O)c(O)c1)OCCc1cccc2ccccc12`, the half-maximal inhibitory concentration (IC50) stood at 15 µM. The compound `O=C(/C=C/c1ccc(O)c(O)c1)OCCCc1ccccc1` came in with an IC50 of 8 µM. As to `O=C(CCc1ccc(O)c(O)c1)NCCc1cc(O)c(O)c(O)c1`, half-maximal inhibition (IC50) was put at 4 µM. `O=C(CCc1ccc(O)c(O)c1)NCCc1ccccc1` showed an IC50 of more than 100 µM. As for `O=C(/C=C/c1ccc(O)c(O)c1)OCCc1ccc2ccccc2c1`, the half-inhibitory concentration (IC50) was determined as 44 µM.

A word on the IC50: it is the concentration needed to halve the response being measured.
